Results from publication PMC3913620, “Preclinical Evaluation of the Novel, Orally Bioavailable Selective Inhibitor of Nuclear Export (SINE) KPT-335 in Spontaneous Canine Cancer: Results of a Phase I Study” (PLoS ONE, 2014).
Where “and” joins values, the source holds several entries; their conditions need not be identical. Identical values can stand only once.

Key:
[1] = system: Jurkat cells; assay: MTS cell viability assay, Jurkat; type: cell-based, human; conditions: Homo sapiens, Jurkat, 72 hours, read-out: IC50 (± S.D.), Jurkat
Protocol: Cryopreserved tumor cells obtained from sterile lymph node biopsy samples from dogs with diffuse large B cell lymphoma (DLBCL) were cultured with 100 ng/mL of megaCD40L (Enzo Life Science, Plymouth Meeting, PA) as previously described, [27]. The human T-cell leukemia cell line, Jurkat, was from the American Type Culture Collection (ATCC, Manassas, VA) and cultured in RPMI1640 medium (Gibco/BRL, Grand Island, NY) containing 10% fetal bovine serum (FBS; Atlas Biologicals, Fort Collins, CO), 2-mercaptoethanol (Gibco/BRL), HEPES, L-glutamine, sodium pyruvate (Mediatech Inc., Manassas, VA), non-essential amino acids (Sigma Aldrich, St. Louis, MO), and Primocin (Invivogen, San Diego, CA). The canine DLBCL cell line CLBL1 obtained from Dr. Barbara Rütgen (University of Vienna, Austria), [29] and human DLBCL cell lines OCI-Ly3 [30], [31] and OCI-Ly10 [32] obtained from Dr. Anne Novak (Mayo Clinic Cancer Center, Rochester, MN) were cultured in complete Iscove’s Modified Dulbecco’s medium (IMDM) containing 20% FBS, L-glutamine, and Primocin. All cells were maintained at 37°C in a humidified 5% CO2 atmosphere. The following additional canine tumor cell lines were used to evaluate response to SINE compounds: C2, mast cell tumor line provided by Dr. George Caughey, UCSF, San Francisco, CA [33]; OSA16, osteosarcoma cell line, provided by Dr. Jaime Modiano, UM, Minneapolis, MN [34]; and 323610-3, malignant melanoma cell line, provided by Dr. Michael Kent, UCD, Davis, CA [35]. […]
(§1) Cell viability for lymphoid lines was determined by the MTS (3-(4, 5-dimethylthiazol-2-yl)-5-(3-carboxymethoxyphenyl)-2-(4-sulfophenyl)-2H-tetrazolium) assay using CellTiter 96® AQueous One Solution Cell Proliferation Assay Kit (Promega, Madison, WI). […] After 72 hours, 20 µL of MTS solution was added to each well and cells were incubated for another 4 hours before measuring absorbance at 490 nm using a Wallac Victor 1420 Multilabel Counter (Perkin Elmer, Waltham, MA). The IC50 of SINE was calculated using Prism 6 software (GraphPad Software, Inc., La Jolla, CA).

[2] = system: OCI-Ly3 DLBCL cells; assay: MTS cell viability assay, OCI-Ly3; type: cell-based, human; conditions: Homo sapiens, OCI-Ly3, 72 hours, read-out: IC50 (± S.D.), OCI-Ly3
Protocol: (§2) Cryopreserved tumor cells obtained from sterile lymph node biopsy samples from dogs with diffuse large B cell lymphoma (DLBCL) were cultured with 100 ng/mL of megaCD40L (Enzo Life Science, Plymouth Meeting, PA) as previously described, [27]. The human T-cell leukemia cell line, Jurkat, was from the American Type Culture Collection (ATCC, Manassas, VA) and cultured in RPMI1640 medium (Gibco/BRL, Grand Island, NY) containing 10% fetal bovine serum (FBS; Atlas Biologicals, Fort Collins, CO), 2-mercaptoethanol (Gibco/BRL), HEPES, L-glutamine, sodium pyruvate (Mediatech Inc., Manassas, VA), non-essential amino acids (Sigma Aldrich, St. Louis, MO), and Primocin (Invivogen, San Diego, CA). […]
as §1

[3] = system: OCI-Ly10 DLBCL cells; assay: MTS cell viability assay, OCI-Ly10; type: cell-based, human; conditions: Homo sapiens, OCI-Ly10, 72 hours, read-out: IC50 (± S.D.), OCI-Ly10
Protocol: as §2, §1

[4] = system: dogs with NHL; assay: Dose expansion study, tumor response; type: in vivo; conditions: 1.5 mg/kg Monday/Wednesday/Friday
Protocol: Tumor assessments were completed prior to study entry, and days 7, 14, 21, and 28. For dogs that continued beyond 4 weeks, response assessments were performed every 2 weeks thereafter, or at the time of suspected tumor progression. Responses were assessed by the investigator according to pre-defined protocol criteria. The response in dogs with assessable disease was performed by clinical examination, ultrasonography, or thoracic radiography. Many lesions were not amenable for quantitative radiographic imaging, but were followed either by serial clinical examination (superficial lesions; palpable lymph nodes) or by ultrasonography (abdominal lymph nodes). Thoracic lesions were assessed by thoracic radiography.
The response in dogs with measurable disease was judged by the investigator on the basis of Response Evaluation Criteria for Peripheral Nodal Lymphoma in dogs (v1.0). A complete response (CR) was defined as disappearance of all disease on two measurements separated by a minimum period of 3 weeks. A partial response (PR) was defined as greater than 30% reduction in the sum of the longest diameter of the target lesions documented by two assessments separated by at least 3 weeks. An increase of >20% in the size of all measurable tumor areas as measured by the sum of longest diameters of the target lesions taken as reference the smallest sum since initiation of therapy, or the appearance of any new lesion(s) would qualify as progressive disease (PD). […] Dogs who had no evidence of tumor progression and who had not experienced any unacceptable toxicity were eligible for extended treatment cycles. Dose escalation from twice per week administration to three times per week administration in an individual dog was permitted if the dog was tolerating therapy.

[5] = Owner-assessed quality of life questionnaire; type: in vivo, dogs
Description: A tool to assess quality of life in dogs with cancer during treatment has been previously published. This was used to assess owner perceived changes in dogs undergoing KPT-335 treatment during both the dose escalation and dose expansion studies. An overall quality of life (QOL) score was created based on answers to the questions on the quality of life questionnaire. The scores from each question were summed resulting in an overall quality of life score which could range from 23 to 115. Trends in Quality of Life (QOL) during the study were examined using linear mixed models containing fixed effects of time and an autoregressive correlation structure for the random errors. Wald tests were used to test for a significant change in QOL with degrees of freedom calculated using the Kenward-Roger method. Measurements obtained after 90 days were not included in the analysis for the dose escalation study and measurements after 70 days were not included in the analysis of the dose expansion data due to few data points after those time points.

[6] = dog, in vivo

O=C(/C=C\n1cnc(-c2cc(C(F)(F)F)cc(C(F)(F)F)c2)n1)NNc1ccccn1 [KPT-335]
IC50 [1]: 0.3 nM | IC50 [2]: 2.1 ± 1.3 nM | IC50 [3]: 41.8 ± 21 nM | CB rate [4]: 67% | TTP range, responders [4]: 35 to 354 days | clinical benefit (CB), dogs [4]: 4/6 | dogs with SD for longer than 28 days [4]: 4 | median TTP, responders [4]: 83 days | duration of PR, individual dogs ([4]; 1.5 mg/kg): 35 days and 354 days | TTP range, all dogs ([4]; 6 dogs with NHL): 13 to 354 days | median TTP, all dogs ([4]; 6 dogs with NHL): 55 days | overall quality of life ([5]; dose escalation study, p = 0.64): did not change significantly | overall quality of life ([5]; dose expansion study, p = 0.47): did not change significantly | tolerable doses [6]: below 3 mg/kg
